Data from patent US5852210A, “Cinnamic acid derivatives” (G. D. Searle & Co., priority 1997, dated 1998).
Where a name gives a salt, the structure may show the parent alone.

Legend:
[1] = molecular target: T1, Human fibrinogen receptor (αIIb β3) (Homo sapiens, UniProt P05106+P08514); test: Purified IIb/IIIa receptor assay (solid phase receptor assay); conditions: inhibition of binding of biotinylated human vitronectin (1 nM) to purified receptor; Table I
T1 construct: Human fibrinogen receptor (αIIb β3) was purified from outdated platelets; from tissue; host or cells: human outdated platelets
Outline: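 Platelet-purified αIIbβ3 (100 ng/well) coated overnight at 4 °C, then competed 2 h at room temperature against 1 nM biotinylated human vitronectin in TBS with 1.0 mM Ca/Mg/Mn, pH 7.4, 1% BSA; top compound 1.0×10^-4 M. Bound ligand detected by HRP anti-biotin, A450, normalized to maximum binding, four-parameter fit.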

[2] = molecular target: T2, Human vitronectin receptor (αv β3) (Homo sapiens, UniProt P05106+P06756); test: Vitronectin adhesion assay (solid phase receptor assay, αvβ3); type: binding; conditions: inhibition of binding of biotinylated human vitronectin (1 nM) to purified receptor; Table I; read-out: AvB3 IC50
T2 construct: Human vitronectin receptor (αv β3) was purified from human placenta; from tissue; host or cells: human placenta
Outline: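 Placental αvβ3 (100 ng/well) coated in TBS with 1 mM Ca, Mg, Mn, pH 7.4, then compound competed with 1 nM biotinylated vitronectin for 2 h at room temperature (top compound concentration 1.0×10^-4 M). Bound ligand detected with HRP anti-biotin/OPD at 450 nm; values normalized to maximum binding, four-parameter curve fit.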

T2 sequence (P06756 31-889 limits assumed): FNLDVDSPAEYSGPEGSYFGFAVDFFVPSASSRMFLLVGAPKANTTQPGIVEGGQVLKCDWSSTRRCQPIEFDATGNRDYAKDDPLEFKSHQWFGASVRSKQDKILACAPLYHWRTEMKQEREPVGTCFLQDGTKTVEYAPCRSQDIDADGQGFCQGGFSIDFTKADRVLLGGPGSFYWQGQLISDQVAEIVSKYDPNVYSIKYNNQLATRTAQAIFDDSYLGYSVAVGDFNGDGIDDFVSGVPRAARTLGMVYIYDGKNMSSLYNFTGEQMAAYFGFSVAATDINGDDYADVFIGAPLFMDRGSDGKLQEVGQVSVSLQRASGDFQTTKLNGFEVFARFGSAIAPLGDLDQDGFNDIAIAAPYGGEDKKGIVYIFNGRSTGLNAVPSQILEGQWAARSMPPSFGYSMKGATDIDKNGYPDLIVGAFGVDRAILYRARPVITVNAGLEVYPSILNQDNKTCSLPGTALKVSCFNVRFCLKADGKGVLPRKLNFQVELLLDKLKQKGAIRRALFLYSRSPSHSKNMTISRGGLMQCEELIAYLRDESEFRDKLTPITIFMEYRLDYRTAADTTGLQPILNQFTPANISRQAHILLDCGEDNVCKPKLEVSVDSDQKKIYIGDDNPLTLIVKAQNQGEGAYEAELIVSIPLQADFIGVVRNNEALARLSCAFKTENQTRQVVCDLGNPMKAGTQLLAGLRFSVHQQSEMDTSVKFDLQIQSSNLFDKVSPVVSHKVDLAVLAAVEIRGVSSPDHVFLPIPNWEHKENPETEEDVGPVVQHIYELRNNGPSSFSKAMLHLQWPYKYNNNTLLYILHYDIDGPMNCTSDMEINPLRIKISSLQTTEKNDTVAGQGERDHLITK
T2 sequence (P06756 891-1048 limits assumed): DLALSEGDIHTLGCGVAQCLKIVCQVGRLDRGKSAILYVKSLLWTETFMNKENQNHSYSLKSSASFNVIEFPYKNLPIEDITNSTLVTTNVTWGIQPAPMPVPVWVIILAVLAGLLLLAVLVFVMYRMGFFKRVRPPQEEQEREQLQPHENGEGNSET
T2 sequence (P05106 27-788): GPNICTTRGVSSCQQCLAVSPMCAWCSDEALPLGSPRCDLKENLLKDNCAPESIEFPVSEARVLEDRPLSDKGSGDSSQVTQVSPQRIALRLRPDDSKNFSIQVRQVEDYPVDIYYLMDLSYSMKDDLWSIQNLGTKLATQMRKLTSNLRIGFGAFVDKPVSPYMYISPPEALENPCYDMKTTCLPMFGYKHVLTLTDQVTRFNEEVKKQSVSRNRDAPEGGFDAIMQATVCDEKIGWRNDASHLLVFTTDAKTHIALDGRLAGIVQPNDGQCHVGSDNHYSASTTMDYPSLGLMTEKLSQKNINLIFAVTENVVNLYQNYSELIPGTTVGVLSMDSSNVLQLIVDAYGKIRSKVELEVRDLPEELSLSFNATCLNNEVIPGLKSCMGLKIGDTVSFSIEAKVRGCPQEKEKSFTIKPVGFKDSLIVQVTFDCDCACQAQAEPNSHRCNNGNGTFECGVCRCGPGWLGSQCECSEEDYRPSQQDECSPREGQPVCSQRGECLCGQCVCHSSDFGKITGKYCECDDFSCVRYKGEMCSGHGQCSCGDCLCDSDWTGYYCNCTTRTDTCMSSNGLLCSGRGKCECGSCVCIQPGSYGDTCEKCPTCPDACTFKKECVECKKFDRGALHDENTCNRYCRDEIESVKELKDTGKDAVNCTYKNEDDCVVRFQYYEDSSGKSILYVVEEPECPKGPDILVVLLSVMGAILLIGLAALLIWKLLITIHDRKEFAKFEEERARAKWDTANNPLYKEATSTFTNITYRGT
T1 sequence (P08514 32-887 limits assumed): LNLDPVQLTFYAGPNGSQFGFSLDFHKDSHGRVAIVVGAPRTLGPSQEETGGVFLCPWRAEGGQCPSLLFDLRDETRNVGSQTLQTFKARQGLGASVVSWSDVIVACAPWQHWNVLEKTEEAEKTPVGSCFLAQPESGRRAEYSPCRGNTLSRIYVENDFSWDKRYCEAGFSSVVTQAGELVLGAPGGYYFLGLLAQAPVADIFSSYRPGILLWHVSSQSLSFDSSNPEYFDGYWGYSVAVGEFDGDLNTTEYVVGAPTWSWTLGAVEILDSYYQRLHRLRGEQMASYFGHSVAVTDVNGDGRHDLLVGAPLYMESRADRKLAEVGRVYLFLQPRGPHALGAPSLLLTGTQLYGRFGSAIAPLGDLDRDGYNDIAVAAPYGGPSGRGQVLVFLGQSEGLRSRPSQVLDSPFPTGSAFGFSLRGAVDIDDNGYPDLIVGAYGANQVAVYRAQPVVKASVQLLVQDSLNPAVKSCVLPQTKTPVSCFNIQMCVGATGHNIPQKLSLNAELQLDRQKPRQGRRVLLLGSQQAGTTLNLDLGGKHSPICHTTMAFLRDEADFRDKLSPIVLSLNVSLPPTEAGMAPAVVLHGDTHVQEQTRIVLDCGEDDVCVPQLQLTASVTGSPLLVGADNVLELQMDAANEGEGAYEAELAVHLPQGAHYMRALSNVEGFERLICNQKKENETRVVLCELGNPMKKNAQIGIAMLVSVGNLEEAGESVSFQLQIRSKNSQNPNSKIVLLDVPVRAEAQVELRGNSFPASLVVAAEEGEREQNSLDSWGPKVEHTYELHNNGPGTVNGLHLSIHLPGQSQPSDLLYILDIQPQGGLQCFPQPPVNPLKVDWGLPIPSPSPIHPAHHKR
T1 sequence (P08514 891-1039 limits assumed): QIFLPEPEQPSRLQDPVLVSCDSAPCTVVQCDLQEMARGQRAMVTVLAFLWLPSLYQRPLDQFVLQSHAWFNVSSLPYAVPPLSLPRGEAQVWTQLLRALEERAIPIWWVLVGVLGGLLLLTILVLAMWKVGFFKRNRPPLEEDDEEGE
T1 sequence (P05106 27-788): as the sequence (P05106 27-788) above

| SMILES | IC50 [1] [nM] | IC50 [2] [nM] |
| --- | --- | --- |
| CC(C)COC(=O)N1CCN=C1Nc1cccc(C(=O)NCc2cccc(/C=C/C(=O)O)c2)c1 [Example 65, 3-[3-[[[[3-[[4,5-dihydro-1-[(2-methylpropoxy)carbonyl]-1H-imidazol-2-yl]amino]phenyl]carbonyl]amino]methyl]phenyl]propenoic acid, monohydrochloride hydrate] | 4950 | 12.1 |
| O=C(O)/C=C/c1cccc(CNC(=O)c2cccc(NC3=NCCN3)c2)c1 [Example 67, 3-[3-[[[[3-[(4,5-dihydro-1H-imidazol-2-yl)amino]phenyl]carbonyl]amino]methyl]phenyl]propenoic acid, monohydrochloride hydrate] | 12000 | 2.27 |
| O=C(O)/C=C/c1cccc(CNC(=O)c2cc(NC3=NCCCN3)cc(C(F)(F)F)c2)c1 [Example 69, 3-[3-[[[[3-[(1,4,5,6-tetrahydropyrimidin-2-yl)amino]-5-(trifluoromethyl)phenyl]carbonyl]amino]methyl]phenyl]propenoic acid, dihydrochloride hydrate] | 38900 | 1.78 |
| O=C(O)/C=C/c1cccc(CNC(=O)c2cc(NC3=NCCN3)cc(C(F)(F)F)c2)c1 [Example 71, 3-[3-[[[[3-[(4,5-dihydro-1H-imidazol-2-yl)amino]-5-(trifluoromethyl)phenyl]carbonyl]amino]methyl]phenyl]propenoic acid, monohydrochloride hydrate] | 18500 | 1.33 |
| O=C(O)/C=C/c1cccc(CNC(=O)c2cccc(Nc3ncccn3)c2)c1 [Example 73, 3-[3-[[[[3-[(2-pyrimidinyl)amino]phenyl]carbonyl]amino]methyl]phenyl]propenoic acid, trifluoroacetate salt] | 66000 | 20400 |
| CC/C(=C\C(=O)O)c1cccc(CNC(=O)c2cccc(NC(=N)N)c2)c1 [Example 74, 3-[3-[[[[3-[(aminoiminomethyl)amino]phenyl]carbonyl]amino]methyl]phenyl]-2E-pentenoic acid, trifluoroacetate salt hydrate] | > 100000 | 2690 |
| N=C(N)Nc1cccc(C(=O)NCc2cccc(C(=CC(=O)O)c3cc(Cl)cc(Cl)c3)c2)c1 [Example 75, 3-[3-[[[[3-[(aminoiminomethyl)amino]phenyl]carbonyl]amino]methyl]phenyl]-3-(3,5-dichlorophenyl) propenoic acid, trifluoroacetate salt] | > 100000 | 42700 |
| O=C(O)/C=C/c1ccc2c(c1)CCN2C(=O)c1cccc(NC2=NCCCN2)c1 [Example 76, 3-[2,3-dihydro-1-[[3-[(1,4,5,6-tetrahydropyrimidin-2-yl)amino]phenyl]carbonyl]-1H-indol-5-yl]propenoic acid, trifluoroacetate salt] | 825 | 8.8 |
| O=C(O)/C=C/c1ccc2c(c1)CCN2C(=O)c1cccc(NC2=NCCN2)c1 [Example 77, 3-[1-[[3-[(4,5-dihydro-1H-imidazol-2-yl)amino]phenyl]carbonyl]2,3-dihydro-1H-indol-5-yl]propenoic acid, trifluoroacetate salt] | 231 | 12.3 |
| O=C(O)/C=C/c1ccc2c(c1)CCCN2C(=O)c1cccc(NC2=NCCCN2)c1 [Example 78, 3-[1-[[3-[(1,4,5,6-tetrahydropyrimidin-2-yl)amino]phenyl]carbonyl]-1,2,3,4-tetrahydro-quinolin-6-yl]propenoic acid, trifluoroacetate salt] | 1790 | 56.3 |
| N=C(N)Nc1cccc(C(=O)COc2cccc(/C=C/C(=O)O)c2)c1 [Example 79, 3-[3-[2-[3-[(aminoimino)methyl]amino]phenyl]-2-oxoethoxy]phenyl]propenoic acid, trifluoroacetate salt] | 415 | 12 |
| O=C(O)/C=C/c1cccc(OCC(=O)c2cccc(NC3=NCCN3)c2)c1 [Example 80, 3-[3-[2-[3-[(4,5-dihydro-1H-imidazol-2-yl)amino]phenyl]-2-oxoethoxy]phenyl]propenoic acid, trifluoroacetate salt] | 3470 | 1.02 |
| N=C(N)Nc1cccc(C(O)CNc2cccc(/C=C/C(=O)O)c2)c1 (centres unmarked) [Example 81, 3-[3-[[2-[3-[(aminoiminomethyl)amino]phenyl]-2-hydroxyethyl]amino]phenyl]propenoic acid, (bis)trifluoroacetate salt hydrate] | 5020 | 54.3 |
| O=C(O)/C=C/c1cccc(C(=O)COc2cccc(NC3=NCCN3)c2)c1 [Example 83, 3-[3-[2-[3-[(4,5-dihydro-1H-imidazol-2-yl)amino]phenoxy]acetyl]phenyl]propenoic acid, trifluoroacetate salt] | 10000 | 21.7 |
| N=C(N)Nc1cccc(/C=C/C(=O)c2ccc(F)c(/C=C/C(=O)O)c2)c1 [Example 84, 3-[5-[3-[3-[(aminoiminomethyl)amino]phenyl]-1-oxopropenyl]-2-fluorophenyl]propenoic acid, trifluoroacetate salt] | 35200 | 891 |
| O=C(O)C=Cc1cc(C(=O)C=Cc2cccc(C3=NCCCN3)c2)ccc1F [Example 85, 3-[5-[3-[3-[(1,4,5,6-tetrahydrolpyrimidin-2-yl)]phenyl]-1-oxopropenyl]-2-fluorophenyl]propenoic acid, trifluoroacetate salt] | 20800 | 92 |
| COc1ccc(/C=C/C(=O)O)cc1C(=O)/C=C/c1cccc(NC(=N)N)c1 [Example 86, 3-[3-[3-[3-[(aminoiminomethyl)amino]phenyl]-1-oxopropenyl]-4-methoxyphenyl]propenoic acid, trifluoroacetate salt] | 563 | 580 |
| COc1ccc(/C=C/C(=O)O)cc1C(=O)/C=C/c1cccc(NC2=NCCN2)c1 [Example 87, 3-[3-[3-[3-[(4,5-dihydro-1H-imidazol-2-yl)amino]phenyl]-1-oxopropenyl]-4-methoxyphenyl]propenoic acid, trifluoroacetate salt] | 2640 | 90.5 |
| N=C(N)Nc1cccc(/C=C/C(=O)c2cccc(/C=C/C(=O)O)c2)c1 [Example 88, 3-[3-[3-[3-[(aminoiminomethyl)amino]phenyl]-1-oxopropenyl]phenyl]propenoic acid, trifluoroacetate salt] | 2610 | 37.3 |
| N=C(N)Nc1cccc(C(=O)/C=C/c2cccc(/C=C/C(=O)O)c2)c1 [Example 89, 3-[3-[3-[3-[(aminoiminomethyl)amino]phenyl]-3-oxopropenyl]phenyl]propenoic acid, trifluoroacetate salt hydrate] | 1260 | 196 |
| O=C(O)/C=C/c1cccc(C(=O)/C=C/c2cccc(NC3=NCCCN3)c2)c1 [Example 90, 3-[3-[1-oxo-3-[3-[(1,4,5,6-tetrahydropyrimidin-2-yl)amino]phenyl]-2-propenyl]phenyl]propenoic acid, trifluoroacetate salt] | 2320 | 6.98 |
| N=C(N)Nc1cccc(C(=O)CCc2cccc(/C=C/C(=O)O)c2)c1 [Example 91, 3-[3-[3-[3-[(aminoiminomethyl)amino]phenyl]-3-oxopropyl]phenyl]propenoic acid, trifluoroacetate salt hydrate] | 8670 | 1270 |
| N=C(N)Nc1cccc(CCC(=O)c2cccc(/C=C/C(=O)O)c2)c1 [Example 92, 3-[3-[3-[3-[(aminoiminomethyl)amino]phenyl]-1-oxopropyl]phenyl]propenoic acid, trifluoroacetate salt] | 4010 | 48.9 |
| O=C(O)/C=C/c1cccc(C(=O)CCc2cccc(NC3=NCCCN3)c2)c1 [Example 93, 3-[3-[1-oxo-3-[3-[(1,4,5,6-tetrahydropyrimidin-2-yl)amino]phenyl]propyl]phenyl]propenoic acid, trifluoroacetate salt] | 5990 | 6.1 |
| O=C(O)/C=C/c1cccc(/C=C/C(=O)c2cccc(NC3=NCCCN3)c2)c1 [Example 94, 3-[3-[3-oxo-3-[3-[(1,4,5,6-tetrahydropyrimidin-2-yl)amino]phenyl]-1-propenyl]phenyl]propenoic acid, trifluoroacetate salt] | 2710 | 11.3 |
| O=C(O)/C=C/c1cccc(CCC(=O)c2cccc(NC3=NCCCN3)c2)c1 [Example 95, 3-[3-[3-oxo-3-[3-[(1,4,5,6-tetrahydropyrimidin-2-yl)amino]phenyl]propyl]phenyl]propenoic acid, trifluoroacetate salt hydrate] | 11800 | 58.5 |
| O=C(O)/C=C/c1ccc(/C=C/c2cccc(NC3=NCCCN3)c2)cc1 [Example 98, 3-[4-[2-[3-[(1,4,5,6-tetrahydropyrimidin-2-yl)amino]phenyl]ethenyl]phenyl]propenoic acid, trifluoroacetate salt] | 222 | 5.08 |
| O=C(O)/C=C/c1ccc(/C=C/c2cccc(NC3=NCCN3)c2)cc1 [Example 99, 3-[4-[2-[3-[(4,5-dihydro-1H-imidazol-2-yl)amino]phenyl]ethenyl]phenyl]propenoic acid, trifluoroacetate salt] | 722 | 26.5 |
